Test results reported in ChEMBL document CHEMBL6074634, “Design, synthesis, and evaluation of novel oxyacanthine derivatives for anti-SARS-CoV-2 activity” (Bioorg Med Chem Lett, 2024).
Active and inactive are the calls of the source. The rule behind the calls is not given here.

Experiments:
[1] = Cytotoxicity against African green monkey Vero E6 cells assessed as cell viability by CCK-8 assay; assay type: toxicity, cell-based, Vero C1008; details: African green monkey (Chlorocebus sabaeus)
[2] = test system: Severe acute respiratory syndrome coronavirus 2; test: Inhibition of SARS CoV-2 envelope (2-E) channel at 100 uM
[3] = Half life in male ICR mouse at 2.5 mg/kg, iv measured upto 24 hrs by LC-MS/MS analysis; assay type: ADME, organism-based; details: in vivo
[4] = Half life in male ICR mouse at 10 mg/kg, po measured upto 24 hrs by LC-MS/MS analysis; assay type: ADME, organism-based; details: in vivo
[5] = Tmax in male ICR mouse at 10 mg/kg, po measured upto 24 hrs by LC-MS/MS analysis; assay type: ADME, organism-based; details: in vivo
[6] = AUC (0 to 24 hrs) in male ICR mouse at 2.5 mg/kg, iv measured upto 24 hrs by LC-MS/MS analysis; assay type: ADME, organism-based; details: in vivo
[7] = Cmax in male ICR mouse at 10 mg/kg, po measured upto 24 hrs by LC-MS/MS analysis; assay type: ADME, organism-based; details: in vivo
[8] = Oral bioavailability in male ICR mouse at 10 mg/kg measured upto 24 hrs by LC-MS/MS analysis; assay type: ADME, organism-based; details: in vivo
[9] = AUC (0 to 24 hrs) in male ICR mouse at 10 mg/kg, po measured upto 24 hrs by LC-MS/MS analysis; assay type: ADME, organism-based; details: in vivo
[10] = Toxicity in mouse assessed as animal death at 10 to 200 mg/kg administered for 10 days; assay type: organism-based; details: in vivo, 240 h, dose 10-200 mg/kg, time 10 day
[11] = Inhibition of SARS CoV-2 envelope (2-E) channel; design: species or system Severe acute respiratory syndrome coronavirus 2
[12] = Toxicity in mouse assessed as body weight loss at 10 to 200 mg/kg administered for 10 days; assay type: organism-based; details: in vivo, 240 h, dose 10-200 mg/kg, time 10 day

Work on COc1ccc(NC(=O)c2ccc3cc2Oc2ccc(cc2)C[C@H]2c4c(cc(OC)c(OC)c4Oc4cc5c(cc4OC)CCN(C)[C@@H]5C3)CCN2C)cc1 yielded an IC50 [1] of 10.6 µM.
With COc1cc2c3cc1Oc1c(OC)c(OC)cc4c1[C@H](Cc1ccc(cc1)Oc1cccc(c1)C[C@H]3N(C)CC2)N(C)CC4 the IC50 [1] was 17.1 µM.
Molecule COc1cc2c3cc1Oc1c(OC)c(OC)cc4c1[C@H](Cc1ccc(cc1)Oc1cc(ccc1C(=O)NC15CC6CC(CC(C6)C1)C5)C[C@H]3N(C)CC2)N(C)CC4 has an IC50 [1] of 4.9 µM.
Work on COC(=O)c1ccc2cc1Oc1ccc(cc1)C[C@H]1c3c(cc(OC)c(OC)c3Oc3cc4c(cc3OC)CCN(C)[C@@H]4C2)CCN1C yielded an IC50 [1] of 29.5 µM.
In the case of COc1cc2c3cc1Oc1c(OC)c(OC)cc4c1[C@H](Cc1ccc(cc1)Oc1cc(ccc1C(=O)NC1CCCC1)C[C@H]3N(C)CC2)N(C)CC4, the IC50 [1] is reported as 22.5 µM.
Work on COc1cc2c3cc1Oc1c(OC)c(OC)cc4c1[C@H](Cc1ccc(cc1)Oc1cc(ccc1C(=O)Nc1ccccc1)C[C@H]3N(C)CC2)N(C)CC4 yielded an IC50 [1] of 6.88 µM.
With COc1cc2c3cc1Oc1c(OC)c(OC)cc4c1[C@H](Cc1ccc(cc1)Oc1cc(ccc1C)C[C@H]3N(C)CC2)N(C)CC4 the IC50 [1] was 10.3 µM.
In the case of COc1cc2c3cc1Oc1c(OC)c(OC)cc4c1[C@H](Cc1ccc(cc1)Oc1cc(ccc1C(=O)Nc1cccnc1)C[C@H]3N(C)CC2)N(C)CC4, the IC50 [1] is reported as 26.4 µM.
With COc1cc2c3cc1Oc1c(OC)c(OC)cc4c1[C@H](Cc1ccc(cc1)Oc1cc(ccc1C(=O)NC1CC1)C[C@H]3N(C)CC2)N(C)CC4 the inhibition [2] was “inactive”, the half-life [3] was 21.1 h and the half-life [4] was 16 h. The Tmax [5] was 1 h, the AUC(0-t) at 24 h [6] was 1840 ng·h/mL and the Cmax [7] was 313 ng/mL. It also gave an IC50 [1] of 62.3 µM, a bioavailability [8] of 68.1% and an AUC(0-t) at 24 h [9] of 5000 ng·h/mL.
C=C(C)c1ccc2cc1Oc1ccc(cc1)C[C@H]1c3c(cc(OC)c(OC)c3Oc3cc4c(cc3OC)CCN(C)[C@@H]4C2)CCN1C gave an IC50 [1] of 6.13 µM.
COc1cc2c3cc1Oc1c(OC)c(OC)cc4c1[C@H](Cc1ccc(cc1)Oc1cc(ccc1C(=O)NC(C)C)C[C@H]3N(C)CC2)N(C)CC4 showed an IC50 [1] of 26.4 µM.
COc1cc2c3cc1Oc1c(OC)c(OC)cc4c1[C@H](Cc1ccc(cc1)Oc1cc(ccc1C(=O)Nc1ccc(C(F)(F)F)cc1)C[C@H]3N(C)CC2)N(C)CC4 showed an IC50 [1] of 10.5 µM.
COc1cc2c3cc1Oc1c(OC)c(OC)cc4c1[C@H](Cc1ccc(cc1)Oc1cc(ccc1O)C[C@H]3N(C)CC2)N(C)CC4 [AROMOLINE] gave a half-life [3] of 13.2 h, a half-life [4] of 6.39 h and a Tmax [5] of 0.33 h. The AUC(0-t) at 24 h [6] was 1300 ng·h/mL, the Cmax [7] was 260 ng/mL and the IC50 [1] was 29.9 µM. For the same molecule, the bioavailability [8] was 34.5% and the AUC(0-t) at 24 h [9] was 1790 ng·h/mL.
For CNC(=O)c1ccc2cc1Oc1ccc(cc1)C[C@H]1c3c(cc(OC)c(OC)c3Oc3cc4c(cc3OC)CCN(C)[C@@H]4C2)CCN1C, the IC50 [1] was 66.7 µM.
With COc1cc2c3cc1Oc1c(OC)c(OC)cc4c1[C@H](Cc1ccc(cc1)Oc1cc(ccc1C(=O)N1CCCCC1)C[C@H]3N(C)CC2)N(C)CC4 the IC50 [1] was 24.6 µM.
With COc1cc2c3cc1Oc1c(OC)c(OC)cc4c1[C@H](Cc1ccc(cc1)Oc1cc(ccc1C(N)=O)C[C@H]3N(C)CC2)N(C)CC4 the half-life [3] was 17.1 h, the half-life [4] was 12.5 h and the Activity [10] was “Non-toxic”. For the same molecule, the IC50 [11] was 0.78 µM, the Activity [12] was “Non-toxic” and the Tmax [5] was 1.75 h. The AUC(0-t) at 24 h [6] was 4120 ng·h/mL, the Cmax [7] was 854 ng/mL and the IC50 [1] was 63.2 µM. It also gave a bioavailability [8] of 77.4% and an AUC(0-t) at 24 h [9] of 12800 ng·h/mL.
Work on COc1cc2c3cc1Oc1c(OC)c(OC)cc4c1[C@H](Cc1ccc(cc1)Oc1cc(ccc1C(C)=O)C[C@H]3N(C)CC2)N(C)CC4 yielded an IC50 [1] of 29.4 µM.
With COc1cc2c3cc1Oc1c(OC)c(OC)cc4c1[C@H](Cc1ccc(cc1)Oc1cc(ccc1C(=O)NCCOCCO)C[C@H]3N(C)CC2)N(C)CC4 the IC50 [1] was 123 µM.
C=CC(=O)Nc1ccc2cc1Oc1ccc(cc1)C[C@H]1c3c(cc(OC)c(OC)c3Oc3cc4c(cc3OC)CCN(C)[C@@H]4C2)CCN1C showed an IC50 [1] of 31.1 µM.
In the case of CCCCCNC(=O)c1ccc2cc1Oc1ccc(cc1)C[C@H]1c3c(cc(OC)c(OC)c3Oc3cc4c(cc3OC)CCN(C)[C@@H]4C2)CCN1C, the IC50 [1] is reported as 22.5 µM.
For COc1cc2c3cc1Oc1c(OC)c(OC)cc4c1[C@H](Cc1ccc(cc1)Oc1cc(cc([N+](=O)[O-])c1)C[C@H]3N(C)CC2)N(C)CC4, the IC50 [1] was 24.3 µM.
With COc1cc2c3cc1Oc1c(OC)c(OC)cc4c1[C@H](Cc1ccc(cc1)Oc1cc(ccc1C(=O)NC1CCC1)C[C@H]3N(C)CC2)N(C)CC4 the IC50 [1] was 33.9 µM.
Molecule COc1cc2c3cc1Oc1c(OC)c(OC)cc4c1[C@H](Cc1ccc(cc1)OC1C=C(Cc5[nH]c(=O)oc51)C[C@H]3N(C)CC2)N(C)CC4 (some centres undefined) has an IC50 [1] of 14.8 µM.
In the case of COc1cc2c3cc1Oc1c(OC)c(OC)cc4c1[C@H](Cc1ccc(cc1)Oc1cc(ccc1C1CC1)C[C@H]3N(C)CC2)N(C)CC4, the IC50 [1] is reported as 10.9 µM.
